Data: ChEMBL document CHEMBL4138086, “Design and synthesis of bis(indolyl)ketohydrazide-hydrazones: Identification of potent and selective novel tubulin inhibitors” (Eur J Med Chem, 2017)
Calls of active or inactive are those of the source. No cut-off for these calls is given here.

Legend:
[1] = test system: HCT-8; assay: Cytotoxicity against human HCT8 cells assessed as reduction in cell viability; format: functional, cell-based
[2] = test system: P388; assay: Cytotoxicity against mouse P388 cells assessed as reduction in cell viability; format: functional, cell-based
[3] = test system: MDA-MB-231; assay: Cytotoxicity against human MDA-MB-231 cells assessed as reduction in cell viability; format: functional, cell-based
[4] = test system: A549; assay: Cytotoxicity against human A549 cells assessed as reduction in cell viability; format: functional, cell-based
[5] = test system: MCF7; assay: Cytotoxicity against human MCF7 cells assessed as cell survival at 10 uM after 48 hrs by MTT assay relative to control; format: functional; details: MCF7, 48 h, read-out: Survival
[6] = test system: MDA-MB-231; assay: Cytotoxicity against human MDA-MB-231 cells assessed as cell survival at 10 uM after 48 hrs by MTT assay relative to control; format: functional; details: MDA-MB-231, 48 h, read-out: Survival
[7] = test system: BT-474; assay: Cytotoxicity against human BT474 cells assessed as cell survival at 10 uM after 48 hrs by MTT assay relative to control; format: functional; details: BT-474, 48 h, read-out: Survival
[8] = test system: HCT-116; assay: Cytotoxicity against human HCT116 cells assessed as cell survival at 10 uM after 48 hrs by MTT assay relative to control; format: functional; details: HCT-116, 48 h, read-out: Survival
[9] = test system: Jurkat; assay: Cytotoxicity against human Jurkat cells assessed as cell survival at 10 uM after 48 hrs by MTT assay relative to control; format: functional; details: read-out: Survival
[10] = test system: HCT-116; assay: Cytotoxicity against human HCT116 cells assessed as reduction in cell survival after 48 hrs by MTT assay; format: functional, cell-based; details: HCT-116, 48 h
[11] = test system: MDA-MB-231; assay: Cytotoxicity against human MDA-MB-231 cells assessed as reduction in cell survival after 48 hrs by MTT assay; format: functional, cell-based; details: MDA-MB-231, 48 h
[12] = test system: Jurkat; assay: Cytotoxicity against human Jurkat cells assessed as reduction in cell survival after 48 hrs by MTT assay; format: functional, cell-based
[13] = test system: Jurkat; assay: Induction of apoptosis in human Jurkat cells increase in caspase 3/7 activity at 1 uM measured up to 180 mins by fluorescence assay relative to control; format: functional
[14] = test system: MCF7; assay: Cytotoxicity against human MCF7 cells assessed as reduction in cell survival after 48 hrs by MTT assay; format: functional, cell-based; details: MCF7, 48 h
[15] = test system: MCF7; assay: Toxicity in human MCF7 cells at 20 uM after 40 hrs by LDH assay; format: cell-based; details: mcf7, 40 h
[16] = species on record: Sus scrofa; assay: (§1) Inhibition of porcine brain tubulin polymerization incubated for 5 mins by fluorimetry
[17] = as §1; set-up: species or system Sus scrofa
[18] = test system: BT-474; assay: Cytotoxicity against human BT474 cells assessed as reduction in cell survival after 48 hrs by MTT assay; format: functional, cell-based; details: BT-474, 48 h
[19] = test system: HCT-116; assay: Toxicity in human HCT116 cells at 20 uM after 40 hrs by LDH assay; format: cell-based; details: hct-116, 40 h
[20] = test system: Jurkat; assay: Toxicity in human Jurkat cells at 20 uM after 40 hrs by LDH assay; format: cell-based
[21] = species on record: Capra hircus; assay: Inhibition of colchicine binding to goat brain tubulin pre-incubated for 20 mins before colchine addition and measured after 45 mins by fluorescence based assay
[22] = test system: BT-474; assay: Toxicity in human BT474 cells at 20 uM after 40 hrs by LDH assay; format: cell-based; details: bt-474, 40 h
[23] = test system: MDA-MB-231; assay: Toxicity in human MDA-MB-231 cells at 20 uM after 40 hrs by LDH assay; format: cell-based; details: mda-mb-231, 40 h
[24] = test system: MCF7; assay: Cell cycle arrest in human MCF7 cells assessed as G2/M phase accumulation at 3 uM after […] by propidium iodide staining based flow cytometry; format: functional
[25] = species on record: Sus scrofa; assay: Inhibition of porcine brain tubulin polymerization at 0.6 uM incubated for 5 mins by fluorimetry
[26] = species on record: Sus scrofa; assay: Inhibition of porcine brain tubulin polymerization at 3.2 uM incubated for 5 mins by fluorimetry
[27] = test system: DU-145; assay: Cytotoxicity against human DU145 cells assessed as reduction in cell viability; format: functional, cell-based
[28] = target: Receptor tyrosine-protein kinase erbB-2 (Homo sapiens, UniProt P04626); assay: Inhibition of c-erbbeta2 (unknown origin)
Chain of Receptor tyrosine-protein kinase erbB-2 (P04626 whole entry): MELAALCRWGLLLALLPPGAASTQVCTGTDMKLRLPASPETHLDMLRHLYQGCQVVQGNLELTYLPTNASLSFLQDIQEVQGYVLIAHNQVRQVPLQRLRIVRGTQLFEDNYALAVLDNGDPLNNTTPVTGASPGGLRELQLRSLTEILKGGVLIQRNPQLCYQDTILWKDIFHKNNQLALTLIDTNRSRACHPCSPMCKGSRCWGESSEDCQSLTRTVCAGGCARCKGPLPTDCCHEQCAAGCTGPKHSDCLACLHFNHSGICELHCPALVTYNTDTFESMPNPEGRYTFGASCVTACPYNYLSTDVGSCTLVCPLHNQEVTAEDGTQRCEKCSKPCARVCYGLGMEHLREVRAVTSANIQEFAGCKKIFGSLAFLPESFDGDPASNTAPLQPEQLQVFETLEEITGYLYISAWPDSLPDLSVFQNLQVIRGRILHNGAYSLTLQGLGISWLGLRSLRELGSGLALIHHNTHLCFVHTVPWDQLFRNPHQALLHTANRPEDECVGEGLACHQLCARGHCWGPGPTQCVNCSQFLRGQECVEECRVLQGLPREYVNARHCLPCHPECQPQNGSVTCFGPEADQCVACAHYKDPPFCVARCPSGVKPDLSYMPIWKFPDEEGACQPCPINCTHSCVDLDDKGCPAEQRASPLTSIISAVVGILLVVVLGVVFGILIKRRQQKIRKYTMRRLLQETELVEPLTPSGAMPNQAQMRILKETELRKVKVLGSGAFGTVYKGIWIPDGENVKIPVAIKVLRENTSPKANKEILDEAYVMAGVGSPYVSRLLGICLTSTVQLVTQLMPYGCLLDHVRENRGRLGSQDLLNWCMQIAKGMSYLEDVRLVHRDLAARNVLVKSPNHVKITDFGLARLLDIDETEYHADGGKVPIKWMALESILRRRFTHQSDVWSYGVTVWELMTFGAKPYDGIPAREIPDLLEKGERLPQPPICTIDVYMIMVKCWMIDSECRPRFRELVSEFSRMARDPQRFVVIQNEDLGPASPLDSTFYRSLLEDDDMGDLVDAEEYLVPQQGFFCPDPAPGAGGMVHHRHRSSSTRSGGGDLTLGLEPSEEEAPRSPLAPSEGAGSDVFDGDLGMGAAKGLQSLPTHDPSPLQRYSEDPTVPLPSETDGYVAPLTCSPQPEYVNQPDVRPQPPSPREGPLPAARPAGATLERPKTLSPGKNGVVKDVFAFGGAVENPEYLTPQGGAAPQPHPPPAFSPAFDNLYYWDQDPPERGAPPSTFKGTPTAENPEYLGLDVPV

[29] = target: Cyclin-dependent kinase 4 (Homo sapiens, UniProt P11802); assay: Inhibition of CDK4 (unknown origin)
Chain of Cyclin-dependent kinase 4 (P11802 whole entry): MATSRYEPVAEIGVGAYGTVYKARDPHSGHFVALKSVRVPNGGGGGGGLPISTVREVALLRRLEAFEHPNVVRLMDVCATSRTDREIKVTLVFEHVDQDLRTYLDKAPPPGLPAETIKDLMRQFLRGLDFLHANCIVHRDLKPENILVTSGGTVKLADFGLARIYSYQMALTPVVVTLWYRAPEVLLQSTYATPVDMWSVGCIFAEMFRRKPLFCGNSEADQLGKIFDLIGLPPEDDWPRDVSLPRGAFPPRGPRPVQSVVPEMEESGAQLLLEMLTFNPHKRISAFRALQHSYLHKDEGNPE

Compound	viability at 10 µM [5] [%]	viability at 10 µM [6] [%]	viability at 10 µM [7] [%]	viability at 10 µM [8] [%]	viability at 10 µM [9] [%]	other results
CN1CC(c2c[nH]c3cc(Br)ccc23)N(C)CC1c1c[nH]c2cc(Br)ccc12 (centres undefined)	–	–	–	–	–	IC50 [1]: 1 to 10 µM; IC50 [2]: 15 µM; IC50 [3]: 1 to 10 µM; IC50 [4]: 1 to 10 µM
O=C(N/N=C/c1c[nH]c2cc(F)ccc12)C(=O)c1c[nH]c2ccccc12	40.2	106	88.2	104	69.9	–
O=C(N/N=C/c1c[nH]c2ccc(Br)cc12)C(=O)c1c[nH]c2ccccc12	35	34	82.4	26.3	25.5	IC50 [10]: 6.6 µM; IC50 [11]: 5.6 µM; IC50 [12]: 5 µM; fold change (FC) [13]: 2 - 5; IC50 [14]: 3.3 µM
O=C(N/N=C/c1c[nH]c2ccccc12)C(=O)c1cn(Cc2ccc(Cl)cc2)c2ccccc12	15	17.1	22.5	13.3	20.6	Activity [15]: 20 to 25%; IC50 [10]: 0.15 µM; IC50 [11]: 0.5 µM; inhibition [16]: Dose-dependent effect; IC50 [17]: 0.6 µM; IC50 [18]: 2.1 µM; Activity [19]: 20 to 25%; IC50 [12]: 0.22 µM; fold change (FC) [13]: 2 - 5; Activity [20]: 20 to 25%; inhibition [21]: Dose-dependent effect; IC50 [14]: 0.8 µM; Activity [22]: 20 to 25%; Activity [23]: 20 to 25%; Activity [24]: Active; inhibition [25]: 50%
COc1cccc2c1C(=O)c1c(O)c3c(c(O)c1C2=O)C[C@@](O)(C(=O)CO)C[C@@H]3O[C@H]1C[C@H](N)[C@H](O)[C@H](C)O1 [DOXORUBICIN]	27	22.5	17.6	25	21	IC50 [11]: 0.55 µM; IC50 [18]: 0.3 µM; IC50 [12]: 0.26 µM
O=C(N/N=C/c1c[nH]c2ccc(F)cc12)C(=O)c1c[nH]c2ccccc12	105	102	112	85.1	56.7	–
COc1ccc2c(/C=N/NC(=O)C(=O)c3c[nH]c4ccccc34)c[nH]c2c1	34.6	103	95.6	38.8	52.1	IC50 [10]: 2.5 µM; IC50 [12]: 10 µM; IC50 [14]: 6.1 µM
COc1ccc2c(/C=N/NC(=O)C(=O)c3c[nH]c4ccc(Br)cc34)c[nH]c2c1	91.4	112	92	71.4	74.1	–
O=C(N/N=C/c1c[nH]c2ccccc12)C(=O)c1c[nH]c2ccccc12	99.2	98.6	83	88.4	33.6	–
COc1ccc2[nH]cc(/C=N/NC(=O)C(=O)c3cn(Cc4ccc(Cl)cc4)c4ccccc34)c2c1	33.7	29.4	21.2	38.2	36.1	Activity [15]: 20 to 25%; IC50 [10]: 4.2 µM; IC50 [11]: 2.9 µM; inhibition [16]: Dose-dependent effect; IC50 [18]: 2.7 µM; Activity [19]: 20 to 25%; IC50 [12]: 3.6 µM; fold change (FC) [13]: 2 - 5; Activity [20]: 20 to 25%; inhibition [26]: 50%; IC50 [14]: 3.8 µM; Activity [22]: 20 to 25%; Activity [23]: 20 to 25%
COc1cc(/C=N/NC(=O)C(=O)c2c[nH]c3ccccc23)cc(OC)c1OC	110	103	101	99.1	69.6	–
COc1ccc(/C=N/NC(=O)C(=O)c2c[nH]c3ccccc23)cc1	106	102	97.5	101	61.9	–
O=C(N/N=C/c1c[nH]c2cc(Br)ccc12)C(=O)c1c[nH]c2ccccc12	92.7	95.1	86.8	94.5	75.4	–
COc1ccc(-c2[nH]c3ccccc3c2/C=N/NC(=O)C(=O)c2c[nH]c3ccccc23)cc1	107	98.8	94.2	71.8	81.6	–
COc1ccc(Cn2cc(/C=N/NC(=O)C(=O)c3c[nH]c4ccc(Br)cc34)c3cc(OC)ccc32)cc1	112	102	91.1	65.7	81.9	–
O=C(N/C=C/c1c[nH]c2cc(Br)ccc12)C(=O)c1c[nH]c2ccccc12	–	–	–	–	–	IC50 [27]: 7.6 µM
O=C(N/N=C/c1cn(Cc2ccc(Cl)cc2)c2ccc(Br)cc12)C(=O)c1c[nH]c2ccccc12	107	88.8	94.7	72.6	93.2	–
Cn1c(-c2cn(C)c3ccccc23)cnc1-c1cn(C)c2cc(Br)ccc12 [N-METHYL NORTOPSENTIN B]	–	–	–	–	–	IC50 [2]: 4.5 to 20.7 µM
Brc1ccc2c(-c3c[nH]c(-c4c[nH]c5cc(Br)ccc45)n3)c[nH]c2c1 [NORTOPSENTIN A]	–	–	–	–	–	IC50 [2]: 4.5 to 20.7 µM
Brc1ccc2c(-c3c[nH]c(-c4c[nH]c5ccccc45)n3)c[nH]c2c1 [NORTOPSENTIN C]	–	–	–	–	–	IC50 [2]: 4.5 to 20.7 µM
O=C(N/N=C/c1ccncc1)C(=O)c1cn(Cc2ccc(Cl)cc2)c2ccccc12	82.2	71.2	78.7	69.1	66.7	–
COc1cccc(/C=N/NC(=O)C(=O)c2c[nH]c3ccccc23)c1	96.8	97.2	95.1	72.4	59.7	–
COc1ccc(/C=N/NC(=O)C(=O)c2c[nH]c3ccccc23)cc1OC	99.8	94.6	103	92.8	78.9	–
O=C(N/N=C/c1c[nH]c2cc(F)ccc12)C(=O)c1c[nH]c2ccc(Br)cc12	97.5	111	94.8	84.2	95.8	–
O=C1N=C(C(=O)c2c[nH]c3ccccc23)N/C1=C\c1c[nH]c2cc(O)ccc12	–	–	–	–	–	IC50 [28]: 7.4 µM; IC50 [29]: 12.5 µM
O=C(N/C=C/c1c[nH]c2ccccc12)C(=O)c1c[nH]c2ccccc12	–	–	–	–	–	IC50 [27]: 7.6 µM
COc1ccc2c(c1)c(/C=N/NC(=O)C(=O)c1c[nH]c3ccc(Br)cc13)cn2Cc1ccc(Cl)cc1	96.1	103	99.1	86.1	46.6	–
COc1ccc2[nH]cc(/C=N/NC(=O)C(=O)c3c[nH]c4ccccc34)c2c1	17.2	21.6	20.3	17.6	19.3	IC50 [10]: 0.4 µM; IC50 [11]: 1.7 µM; IC50 [18]: 1.1 µM; IC50 [12]: 0.5 µM; fold change (FC) [13]: 2 - 5; IC50 [14]: 1.8 µM
O=C(N/C=C/c1c[nH]c2ccc(Br)cc12)C(=O)c1c[nH]c2c(O)cccc12	–	–	–	–	–	IC50 [27]: 7.6 µM
O=C(Nc1ccncc1)C(=O)c1cn(Cc2ccc(Cl)cc2)c2ccccc12 [INDIBULIN]	–	–	–	–	–	IC50 [14]: 1.1 µM
